Earlier results as cited in patent US20110184060A1, “ORAL DOSAGE FORMS HAVING A HIGH LOADING OF A TRANEXAMIC ACID PRODRUG” (XenoPort, Inc., priority 2010, published 2011).
Read-outs that look alike come from different tables or passages of the source.

Assays:
[1] = human subjects, prodrug
[2] = statement in words, no data given
[3] = not given; remark: listed apart in the source

CCOC(=O)OC(C)OC(=O)[C@H]1CC[C@H](CN)CC1 (relative stereo) [Kabi 2161, 1-(ethoxycarbonyl)oxyethyl trans-4-(aminomethyl)-cyclohexane carboxylate]
oral bioavailability of tranexamic acid [1]: improved oral bioavailability of tranexamic acid

CC(OC(=O)NC[C@H]1CC[C@H](C(=O)O)CC1)OC(=O)C(C)C (stereo partly drawn) [Compound (1), 4-({[(2-methylpropanoyloxy)ethoxy]carbonylamino}methyl)cyclohexanecarboxylic acid]
oral bioavailability of tranexamic acid [2]: high oral bioavailability of tranexamic acid

NC[C@H]1CC[C@H](C(=O)O)CC1 [tranexamic acid, trans-4-(aminomethyl)-cyclohexanecarboxylic acid]
oral bioavailability (oral tranexamic acid): about 30% | terminal elimination half life (tranexamic acid): about 2 hours | reduction of post-operative bleeding ([3]; cardiopulmonary bypass surgery, prophylactic administration of lysine analogs such as tranexamic acid): 30-40% | reduction of total blood loss ([3]; subjects undergoing total knee arthroplasty, prophylactic administration): up to 50%
